The record followed here is paper PMC9935382, “Sorting nexin-dependent therapeutic targeting of oncogenic epidermal growth factor receptor” (Cancer Gene Therapy, 2022).

Data set [1] deals with mammary tumors of WAP-TGFα transgenic mice. Nature of the data set: Tumor growth in WAP-TGFα transgenic mice. The data set is classed as in vivo, mouse. As to the method:
Statistics for the animal model was performed by the University of Arizona Cancer Center Biostatistics and Bioinformatics Shared Resources (BBSR). The cube root of the observed tumor burden was applied to normalize the raw values. […] For all cell culture experiments error bars represent the standard error of the mean across 3 experimental replicates.
The transgenic mouse line WAP-TGFα (The Jackson Laboratory; Tg(WapTgfa)215Bri) were back crossed to C57BL/6 J background (N8). WAP-TGFα heterozygous males were bred with C57BL/6 J females to generate study animals and offspring were genotyped using primers against the WAP-TGFα transgene. WAP-TGFα heterozygous females were housed continuously with C57Bl/6 J males to induce pregnancy, resulting in transgene expression. […] To ensure randomized treatment arms we added mice to alternating treatment arms as they developed tumors, starting with the control cPTD4 arm. When a second mouse from the same litter developed a tumor, that animal was added to the opposite arm from its litter mate. The researchers were not blinded to the treatment arms. […] Once entered, mice were weighed, tumors measured, and injections given intravenously at 10 μg/g body weight 3x/week for 4 weeks. […] Upon sacrifice, all tumors were collected and fixed in 10% formalin; a portion of each tumor was homogenized in tissue lysis buffer to form tissue protein lysates. Tissues were paraffin-embedded and sectioned by the Tissue Acquisition and Cell Molecular Analysis Shared Resource at the University of Arizona Cancer Center. The University of Arizona IACUC committee performs oversite of animal experimental protocols with coordination from a veterinarian in compliance with AAALAC.
When tumors reached >100 mm^3, IV injections began at 3X/week, 10 μg/g body weight and tumors were measured 3X/week with calipers. Animals were injected for 4 weeks or until they reached maximal tumor burden, defined as a total tumor volume >2000 mm^3 or an individual tumor measuring >2 cm in diameter. […] The WAP-TGFα is a spontaneous model in which each tumor arises and progresses in a heterogeneous fashion. […] In this study, mice were sacrificed after 4 weeks of injections or once they reached tumor burden, represented by the Kaplin-Meyer graph (Fig. 2B).
Mice were bred continuously to induce transgene expression and palpated weekly for tumor formation. […] A Changes in tumor size from entry into study until end of study are shown for each individual tumor, (*) indicate tumors that entered the study at size greater than 500 mm^3, all other tumors entered the study at ~100 mm^3. B a Kaplan-Meier survival curve was generated showing when mice were sacrificed by either reaching tumor burden (2000 mm^3) or the end of the study (p = 0.0002). C Upon sacrifice tumors were harvested and fixed in 10% formalin and embedded in paraffin. FFPE blocks were sectioned at […] and stained with hematoxylin and eosin and imaged at 20x. D Protein lysates were generated from tumors upon the sacrifice and probed for the indicated proteins.

The nature of data set [2]: Potential toxicity in C57Bl/6 J female mice. The data set is classed as in vivo, mouse. To be noted: 5.0 or 10.0 μg/g body weight IV 3X/week, 2 weeks, cSNX1.3 vs cPTD4; data not shown.
A further data set has as its system MDA-MB-468 cells. The data set is classed as cell-based. As to conditions: 3 days, MTT. How it is done:
2 × 10^3 cells were plated per well in a 96 well plate and left to adhere overnight. The following day, drug treatments were started and continued for 3 days. To measure the viability of the remaining cell population, 10% 3-(4,5-dimethylthiazol-2-yl)-2,5-diphenyltetrazolium (MTT) in media was added and incubated for 2 hours and conversion of MTT to formazan at 540 nm using a biotech Synergy LX plate reader.
A Peptide sequence alignment of modified and stabilized peptides (−) indicates conserved residues, (/) indicates a deleted residue. Modified residues used for staples are (S)-2-(((9H-flouren-9-yl) methoxy) caronylamino)-2-methyl-hept-6-enoic acid and (R)-2-(((9H-flouren-9-yl) methoxy) caronylamino)-2-methyl-dec-9-enoic acid. PTD4 = Protein Transduction Domain. Ac = acetylation of […] and NH2 = amidation of […]. B MDA-MB-468 cells were treated with 10 μM of the indicated peptide for 3 days. Cell viability was measured using an MTT assay. Vehicle control represents 100%. C. A predicted peptide structure of SNX1.3 was generated using SWISSMODEL with negative (blue) and positive (red) residues highlighted.
A–G Cells were plated in a 96-well plate at 2000 cells per well. […] Cell viability was then measured with an MTT assay, viability of treated cells were compared with the vehicle control. […]

Structures are written as SMILES. “Also recorded” adds a separate entry of the source.

In the case of `CC[C@H](C)[C@H](NC(=O)[C@@H](NC(=O)[C@H](Cc1c[nH]cn1)NC(=O)[C@H](CC(N)=O)NC(=O)[C@H](CCCCN)NC(=O)[C@H](C)NC(=O)[C@H](CCCNC(=N)N)NC(=O)[C@H](C)NC(=O)[C@H](CCC(N)=O)NC(=O)[C@H](CCCNC(=N)N)NC(=O)[C@H](C)NC(=O)[C@H](C)NC(=O)[C@H](C)NC(=O)[C@H](CCCNC(=N)N)NC(=O)[C@H](C)NC(=O)[C@H](Cc1ccc(O)cc1)NC(C)=O)C(C)C)C(=O)N[C@@H](CCCCN)C(=O)N[C@@H](Cc1ccc(O)cc1)C(=O)N[C@@H](CC(C)C)C(=O)N[C@@H](CCC(=O)O)C(=O)N[C@H](C(=O)N[C@@H](CC(C)C)C(=O)N[C@@H](CC(C)C)C(=O)N[C@@H](Cc1ccc(O)cc1)C(=O)N[C@@H](CO)C(=O)N[C@@H](CCC(N)=O)C(=O)N[C@@H](CCC(N)=O)C(=O)N[C@@H](CCC(N)=O)C(=O)N[C@@H](CC(C)C)C(=O)N[C@@H](C)C(=O)N[C@@H](CCCCN)C(=O)N[C@@H](Cc1ccc(O)cc1)C(=O)N[C@@H](Cc1c[nH]c2ccccc12)C(=O)N[C@@H](CCC(=O)O)C(=O)N[C@@H](C)C(=O)N[C@@H](Cc1ccccc1)C(=O)N[C@@H](CC(C)C)C(N)=O)[C@@H](C)O` [cSNX1.3], the “tumor response” value in data set [1] (10 μg/g IV 3X/week, up to 4 weeks) is recorded as “significant tumor regression; also recorded: significant reduction in tumor growth; also recorded: several tumors completely regress”. Further, the “average tumor regression rate” value in data set [1] (10 μg/g IV 3X/week, up to 4 weeks, n = 11 tumors) is given as 4 mm^3/day. Also, the “average tumor growth rate” value in data set [1] (10 μg/g body weight IV 3X/week, up to 4 weeks, cPTD4 n = 14 tumors, cSNX1.3 n = 11 tumors) was -4 mm^3/day. For the same molecule, the “mice that reached tumor burden” value in data set [1] (mice of total before end of the study, total tumor volume >2000 mm^3 or individual tumor >2 cm) is listed as 1/6. This molecule gave a tumors fully regressed in data set [1] (number of tumors, calipers and confirmed during necropsy, 10 μg/g IV 3X/week) of 3. Moreover, the “tumors that demonstrated growth” value in data set [1] (number or proportion of tumors at end of study, the 2 growing cSNX1.3 tumors entered at greater than 500 mm^3) is on record as 2. Further, in data set [1] (tumors of total, first to last measurement, 10 μg/g IV 3X/week), the “tumors with no change in tumor volume” value was 2/11. Further, the tumors regressed in data set [1] (tumors of total, 10 μg/g IV 3X/week, up to 4 weeks) is 7/11. Further, in data set [2], the “weight, behavior, or grooming” value is recorded as “No difference in weight, behavior, or grooming was observed”. Besides, the “inhibition of cell survival compared with Sapitinib” value with MDA-MB-468 cells is recorded as “more effective than Sapitinib”.
